Results: patent US20230093099A1, “COMPOUNDS AND METHODS OF TREATING CANCERS” (CULLGEN (SHANGHAI), INC., priority 2019, published 2023)
Like-named read-outs stand apart in the source and are kept apart here.

Assays:
Assay type in all cases: cell-based
[1] = test system: HEL cells; experiment: Cell viability assay (CellTiter-Glo) in HEL cells; conditions: erythroleukemia, cell viability, 3 days
Method: (§1) MV4;11, RS4;11, Kasumi-1, HEL and other cells were treated with NVP-BSK805, TG101209 or selected degraders for 3 days at indicated concentrations following a 3-fold serial dilution.
(§2) HEL, RS4;11, MV4;11, Kasumi-1 and other cells were cultured at 37° C. with 5% CO2 in RPMI 1640 or DMEM Medium supplemented with 10% fetal bovine serum. Cells were authenticated using the short tandem repeat (STR) assays. Mycoplasma test results were negative.
(§3) Cells were seeded at a density of 5000 cells per well in 96-well assay plates and treated with test compounds following a 8-point or 12-point 3-fold serial dilution. Three days later, cell viability was determined using the CellTiter-Glo assay kit according to the manufacturer's instructions. The dose-response curves were determined and IC50 values were calculated using the GraphPad Prism software following a nonlinear regression (least squares fit) method.

[2] = test system: Jurkat cells; experiment: Cell viability assay (CellTiter-Glo) in Jurkat cells; conditions: T-ALL, 3 days
Method: as §1, §2, §3

[3] = test system: NOMO-1 cells; experiment: Cell viability assay (CellTiter-Glo) in NOMO-1 cells; conditions: NOMO-1, AML, 3 days
Method: as §1, §2, §3

[4] = test system: MM.1S cells; experiment: Cell viability assay (CellTiter-Glo) in MM.1S cells; conditions: Multiple Myeloma, 3 days
Method: as §1, §2, §3

[5] = test system: CCRF-CEM cells; experiment: Cell viability assay (CellTiter-Glo) in CCRF-CEM cells; conditions: T-ALL, 3 days
Method: as §1, §2, §3

[6] = test system: SU-DHL-1 cells; experiment: Cell viability assay (CellTiter-Glo) in SU-DHL-1 cells; conditions: SU-DHL-1, large cell lymphoma, 3 days
Method: as §1, §2, §3

[7] = test system: Kasumi-1 cells; experiment: Cell viability assay (CellTiter-Glo) in Kasumi-1 cells; conditions: Kasumi-1, AML, cell viability, 3 days
Method: as §1, §2, §3

[8] = test system: MV4;11 cells; experiment: Cell viability assay (CellTiter-Glo) in MV4;11 cells; conditions: MV4;11, AML, cell viability, 3 days
Method: as §1, §2, §3

[9] = test system: RS4;11 cells; experiment: Cell viability assay (CellTiter-Glo) in RS4;11 cells
Outline: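 Three-day compound treatment of RS4;11 ALL cells (5000/well, 3-fold dilution series of 8 or 12 points), with IC50 from a nonlinear least-squares fit to CellTiter-Glo viability data.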

[10] = test system: MOLM-13 cells; experiment: Cell viability assay (CellTiter-Glo) in MOLM-13 cells; conditions: MOLM-13, AML, 3 days
Method: as §1, §2, §3

[11] = test system: WSU-DLCL2 cells; experiment: Cell viability assay (CellTiter-Glo) in WSU-DLCL2 cells; conditions: WSU-DLCL2, DLBCL, 3 days
Method: as §1, §2, §3

[12] = test system: HL-60 cells; experiment: Cell viability assay (CellTiter-Glo) in HL-60 cells; conditions: HL-60, APL, 3 days
Method: as §1, §2, §3

[13] = test system: MEG-01 cells; experiment: Cell viability assay (CellTiter-Glo) in MEG-01 cells; conditions: MEG-01, CML, 3 days
Method: as §1, §2, §3

[14] = test system: AMO-1 cells; experiment: Cell viability assay (CellTiter-Glo) in AMO-1 cells; conditions: AMO-1, Multiple Myeloma, 3 days
Method: as §1, §2, §3

[15] = test system: Pfeiffer cells; experiment: Cell viability assay (CellTiter-Glo) in Pfeiffer cells; conditions: DLBCL, 3 days
Method: as §1, §2, §3

[16] = test system: NCI-H929 cells; experiment: Cell viability assay (CellTiter-Glo) in NCI-H929 cells; conditions: NCI-H929, Multiple Myeloma, 3 days
Method: as §1, §2, §3

[17] = test system: MOLT-4 cells; experiment: Cell viability assay (CellTiter-Glo) in MOLT-4 cells; conditions: MOLT-4, T-ALL, 3 days
Method: as §1, §2, §3

[18] = test system: KM12 cells; experiment: Cell viability assay (CellTiter-Glo) in KM12 cells; conditions: KM12, colorectal carcinoma, 3 days
Method: as §1, §2, §3

[19] = target: T1, JAK1 (Homo sapiens, UniProt P23458); experiment: Immunoblot of JAK1 protein level in RS4;11 cells; conditions: 24 hours, immunoblot, read-out: concentration required to reduce JAK1 by 50% (DC50)
T1 construct: immunoblot of JAK1/3 proteins expressed in RS4;11 cells; endogenous in cells; host or cells: RS4;11 cells
Method: RS4;11 cells were treated with compounds at indicated concentrations for 24 hours. […] The concentrations required to reduce JAK1 by 50% (DC50) were below 5 nM and 35 nM for compound JA-189 and JA213, respectively.
as §2
(§4) Rabbit anti-JAK1 antibody (3344S), anti-JAK2 antibody (3230S), anti-JAK3 antibody (8827S), anti-TYK2 antibody (14193S), anti-FLT3 antibody (3462S), anti-RET antibody (14556S), anti-phospho-STAT3 (Tyr705) antibody (9145S) and anti-phospho-STAT5 (Tyr694) antibody (4322S) were purchased from Cell Signaling Technology. Rabbit anti-GSPT1 antibody (ab126090) was purchased from Abcam. HRP-conjugated anti-α-tubulin antibody was produced in house. Media and other cell culture reagents were purchased from Thermo Fisher. The CellTiter-Glo Luminescent Assay kit was purchased from Promega.
(§5) Cultured cells were washed with cold PBS once and lysed in cold RIPA buffer supplemented with protease inhibitors and phosphatase inhibitors (Beyotime Biotechnology). The solutions were then incubated at 4° C. for 30 minutes with gentle agitation to fully lyse cells. Cell lysates were centrifuged at 13,000 rpm for 10 minutes at 4° C. and pellets were discarded. Total protein concentrations in the lysates were determined by BCA assays (Beyotime Biotechnology). Cell lysates were mixed with Laemmli loading buffer to 1× and heated at 99° C. for 5 min. Proteins were resolved on SDS-PAGE and visualized by chemiluminescence. Images were taken by a ChemiDoc MP Imaging system (Bio-Rad). Protein bands were quantitated using the accompanied software provided by Bio-Rad.

[20] = target: T2, GSPT1 (Homo sapiens, UniProt P15170); experiment: Immunoblot of GSPT1 protein level in RS4;11 cells; conditions: 16 hours, immunoblot, read-out: concentration required to reduce GSPT1 by 50% (DC50)
T2 construct: immunoblot of GSPT1 and tubulin expressed in RS4:11 cells; endogenous in cells; host or cells: RS4;11 cells
Method: RS4;11 cells were treated with compounds at indicated concentrations for 16 hours. […] The concentrations required to reduce GSPT1 by 50% (DC50) were below 2 nM for compound JA-189 and 10 nM JA213.
as §2, §4, §5

[21] = Homo sapiens, 72 h, RS4;11 cells, cell viability, 3 days, CellTiter-Glo, read-out: IC50

T2 sequence (P15170 whole entry): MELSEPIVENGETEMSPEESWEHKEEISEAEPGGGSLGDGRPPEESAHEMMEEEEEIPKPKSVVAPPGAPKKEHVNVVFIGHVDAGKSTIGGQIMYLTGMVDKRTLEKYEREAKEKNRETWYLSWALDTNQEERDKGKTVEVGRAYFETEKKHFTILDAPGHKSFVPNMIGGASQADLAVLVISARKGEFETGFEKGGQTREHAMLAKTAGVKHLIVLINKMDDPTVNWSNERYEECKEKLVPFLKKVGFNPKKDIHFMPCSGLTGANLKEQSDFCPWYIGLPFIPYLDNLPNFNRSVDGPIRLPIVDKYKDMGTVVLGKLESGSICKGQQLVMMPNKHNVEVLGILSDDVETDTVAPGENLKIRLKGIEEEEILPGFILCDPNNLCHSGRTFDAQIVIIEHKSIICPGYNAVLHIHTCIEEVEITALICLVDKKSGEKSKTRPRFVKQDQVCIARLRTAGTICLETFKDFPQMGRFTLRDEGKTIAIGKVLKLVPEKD
T1 sequence (P23458 whole entry): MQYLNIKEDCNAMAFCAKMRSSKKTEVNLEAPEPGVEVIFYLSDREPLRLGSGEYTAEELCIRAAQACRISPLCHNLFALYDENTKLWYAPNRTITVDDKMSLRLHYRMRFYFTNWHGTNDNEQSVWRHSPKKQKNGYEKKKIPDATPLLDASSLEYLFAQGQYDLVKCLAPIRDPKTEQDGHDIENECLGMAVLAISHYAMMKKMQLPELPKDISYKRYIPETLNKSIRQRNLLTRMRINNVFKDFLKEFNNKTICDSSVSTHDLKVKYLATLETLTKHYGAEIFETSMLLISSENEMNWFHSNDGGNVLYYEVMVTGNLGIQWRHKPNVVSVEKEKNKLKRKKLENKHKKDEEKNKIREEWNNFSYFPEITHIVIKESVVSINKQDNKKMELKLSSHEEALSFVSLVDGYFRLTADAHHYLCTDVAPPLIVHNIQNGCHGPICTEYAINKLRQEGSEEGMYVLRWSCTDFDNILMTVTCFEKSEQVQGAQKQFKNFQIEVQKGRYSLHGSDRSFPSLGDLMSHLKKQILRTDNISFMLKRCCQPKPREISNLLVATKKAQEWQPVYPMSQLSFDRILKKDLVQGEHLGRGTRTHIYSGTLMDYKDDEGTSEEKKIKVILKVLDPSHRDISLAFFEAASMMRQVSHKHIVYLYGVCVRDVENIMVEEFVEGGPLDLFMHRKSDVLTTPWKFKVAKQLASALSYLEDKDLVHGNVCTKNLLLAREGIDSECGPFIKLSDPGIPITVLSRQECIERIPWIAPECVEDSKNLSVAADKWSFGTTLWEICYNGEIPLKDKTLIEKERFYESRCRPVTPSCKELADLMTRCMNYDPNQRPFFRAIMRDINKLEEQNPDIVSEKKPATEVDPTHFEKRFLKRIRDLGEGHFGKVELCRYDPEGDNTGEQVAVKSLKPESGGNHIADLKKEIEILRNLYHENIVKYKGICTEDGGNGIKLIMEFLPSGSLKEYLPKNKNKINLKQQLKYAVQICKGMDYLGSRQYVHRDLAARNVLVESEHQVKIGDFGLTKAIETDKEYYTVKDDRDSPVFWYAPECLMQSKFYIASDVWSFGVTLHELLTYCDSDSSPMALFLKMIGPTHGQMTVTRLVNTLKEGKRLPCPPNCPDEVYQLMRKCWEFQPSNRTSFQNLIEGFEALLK

## Cc1cnc(Nc2ccc(N3CCN(C)CC3)cc2)nc1Nc1cccc(S(=O)(=O)NC(C)(C)C)c1 [TG101209, reference compound]
[1]; Homo sapiens, 72 h
  IC50: 1200 nM
[2]; Homo sapiens, 72 h
  IC50: 550 nM
[3]; Homo sapiens, 72 h
  IC50: 1300 nM
[4]; Homo sapiens, MM1.S, 72 h
  IC50: 6110 nM
[5]; Homo sapiens, 72 h
  IC50: 3960 nM
[6]; Homo sapiens, 72 h
  IC50: > 10000 nM
[7]; Homo sapiens, 72 h
  IC50: 529 nM
[8]; Homo sapiens, 72 h
  IC50: 194 nM
[9]; [21]
  IC50: 1840 nM
[10]; Homo sapiens, 72 h
  IC50: 48.2 nM
[11]; Homo sapiens, WSUDLCL2, 72 h
  IC50: 1070 nM
[12]; Homo sapiens, 72 h
  IC50: > 10000 nM
[13]; Homo sapiens, 72 h
  IC50: 7120 nM
[14]; Homo sapiens, AMO1, 72 h
  IC50: 4780 nM
[15]; Homo sapiens, 72 h
  IC50: > 10000 nM
[16]; Homo sapiens, 72 h
  IC50: > 10000 nM
[17]; Homo sapiens, 72 h
  IC50: 2500 nM

## Fc1cc(-c2cccc3ncc(-c4cnn(C5CCNCC5)c4)nc23)cc(F)c1CN1CCOCC1 [NVP-BSK805, reference compound]
[1]
  IC50: 1040 nM
[2]
  IC50: 2520 nM
[3]
  IC50: 6280 nM
[4]
  IC50: > 10000 nM
[5]
  IC50: > 10000 nM
[6]
  IC50: > 10000 nM
[7]
  IC50: 758 nM
[8]
  IC50: 390 nM
[9]; RS4;11, B-ALL, cell viability, 3 days (Table 3), read-out: IC50
  IC50: > 10000 nM
[9]; RS4;11 cells, cell viability, 3 days, CellTiter-Glo, read-out: IC50
  IC50: > 10000 nM
[10]
  IC50: 201 nM
[11]
  IC50: > 10000 nM
[12]
  IC50: > 10000 nM
[18]
  IC50: 2860 nM
[13]
  IC50: 8870 nM
[14]
  IC50: > 10000 nM
[15]
  IC50: > 10000 nM
[16]
  IC50: > 10000 nM
[17]
  IC50: > 10000 nM

## CS(=O)(=O)c1ccc(-c2cccc3nc(Nc4ccc(N5CCN(CC(=O)NCCCCCCCCNc6ccc7c(c6)C(=O)N(C6CCC(=O)NC6=O)C7=O)CC5)cc4)nn23)cc1 (stereo not shown) [JA213]
[19]
  DC50: < 35 nM
[20]
  DC50: < 10 nM

## Cc1cnc(Nc2ccc(N3CCN(C(=O)CCOCCOCCOCCNc4ccc5c(c4)C(=O)N(C4CCC(=O)NC4=O)C5=O)CC3)cc2)nc1Nc1cccc(S(=O)(=O)NC(C)(C)C)c1 (stereo not shown) [JA-234, N-(tert-butyl)-3-((2-((4-(4-(3-(2-(2-(2-((2-(2,6-dioxopiperidin-3-yl)-1,3-dioxoisoindolin-5-yl)amino)ethoxy)ethoxy)ethoxy)propanoyl)piperazin-1-yl)phenyl)amino)-5-methylpyrimidin-4-yl)amino)benzenesulfonamide]
[9]; [21]
  IC50: 1590 nM

## Cc1ncsc1-c1ccc(CNC(=O)[C@@H]2C[C@@H](O)CN2C(=O)[C@@H](NC(=O)CCCCCCCNC(=O)CN2CCN(c3ccc(Nc4nc5cccc(-c6ccc(S(C)(=O)=O)cc6)n5n4)cc3)CC2)C(C)(C)C)cc1 [JA-124, (2S,4R)-1-((S)-3,3-Dimethyl-2-(8-(2-(4-(4-((5-(4-(methylsulfonyl)phenyl)-[1,2,4]triazolo[1,5-a]pyridin-2-yl)amino)phenyl)piperazin-1-yl)acetamido)octanamido)butanoyl)-4-hydroxy-N-(4-(4-methylthiazol-5-yl)benzyl)pyrrolidine-2-carboxamide]
[9]; [21]
  IC50: > 10000 nM

## O=C(CN1CCC(n2cc(-c3cnc4cccc(-c5cc(F)c(CN6CCOCC6)c(F)c5)c4n3)cn2)CC1)NCCOCCNc1cccc2c1C(=O)N(C1CCC(=O)NC1=O)C2=O (stereo not shown) [JA-139, 2-[4-[4-[8-[3,5-Difluoro-4-(morpholinomethyl)phenyl]quinoxalin-2-yl]pyrazol-1-yl]-1-piperidyl]-N-[2-[2-[[2-(2,6-dioxo-3-piperidyl)-1,3-dioxo-isoindolin-4-yl]amino]ethoxy]ethyl]acetamide]
[9]; [21]
  IC50: > 10000 nM

## CS(=O)(=O)c1ccc(-c2cccc3nc(Nc4ccc(N5CCN(C(=O)CCCCCNc6ccc7c(c6)C(=O)N(C6CCC(=O)NC6=O)C7=O)CC5)cc4)nn23)cc1 (stereo not shown) [JA-198, 2-(2,6-dioxopiperidin-3-yl)-5-((6-(4-(4-((5-(4-(methylsulfonyl)phenyl)-[1,2,4]triazolo[1,5-a]pyridin-2-yl)amino)phenyl)piperazin-1-yl)-6-oxohexyl)amino)isoindoline-1,3-dione]
[9]; Homo sapiens, 72 h, RS4;11 ALL cells treated for three days, read-out: cell viability inhibition IC50
  IC50: < 100 nM
[9]; [21]
  IC50: 7.3 nM
